Assay results reported in ChEMBL document CHEMBL4483862, “Open-source discovery of chemical leads for next-generation chemoprotective antimalarials” (2018).

Tested on: Plasmodium berghei
Test: Luciferase/luciferin-expressing antifolate-resistant parasites were used to infect a culture of HepG2 cells that were pre-incubated with compounds. Infected hepatocytes emit light due to the luciferase reaction. Assay results are presented as the percent inhibition of light emission compared to control. […]
Assay type: functional
Settings: sporozoite; for IC90: read-out: LUCIFERASE INFECTION ASSAY - IC90
[1] = read-out: LUCIFERASE INFECTION ASSAY - IC50

| Compound | IC90 [µM] | also measured |
| --- | --- | --- |
| O=C(Nc1nc2ccccn2c1C(=O)NC1CCCC1)c1ccc(C(F)(F)F)cc1 | 0.325 | IC50 (FFLUC_HILL_SLOPE 11.1, FFLUC_R_SQUARED 0.453, HEPG2TOX_HILL_SLOPE 0.561, HEPG2TOX_R_SQUARED 0.841, PBLUC_HILL_SLOPE 12.2, PBLUC_R_SQUARED 0.531, read-out: LUCIFERASE INFECTION ASSAY - IC50): 0.271 µM |
| O=C(Nc1ncc(Cc2ccc(F)c(F)c2)s1)c1ccc2nc[nH]c2c1 | > 10 | IC50 (HEPG2TOX_HILL_SLOPE 13.7, HEPG2TOX_R_SQUARED 0.959, PBLUC_HILL_SLOPE 2.28, PBLUC_R_SQUARED 0.72, read-out: LUCIFERASE INFECTION ASSAY - IC50): 4.35 µM |
| COc1ccc(CC(N)c2csc(NC(=O)c3cccc(OC(F)(F)F)c3)n2)cc1 (stereo not given) | 7.48 | IC50 (PBLUC_HILL_SLOPE 9.24, PBLUC_R_SQUARED 0.637, read-out: LUCIFERASE INFECTION ASSAY - IC50): 5.89 µM |
| Cc1ccc(-n2cccc2)c(NC(=O)c2c(-c3c(Cl)cccc3Cl)noc2C)c1 | > 7.74 | IC50 (PBLUC_HILL_SLOPE 1.2, PBLUC_R_SQUARED 0.354, read-out: LUCIFERASE INFECTION ASSAY - IC50): 4.14 µM |
| COc1cc(OC)cc(-c2cn3c(-c4ccc(CO)cc4)cnc3cn2)c1 | 8.34 | IC50 (PBLUC_HILL_SLOPE 5.1, PBLUC_R_SQUARED 0.643, read-out: LUCIFERASE INFECTION ASSAY - IC50): 5.42 µM |
| COc1cc2c(cc1OC)CN(c1nc(CN3CCOCC3)nc3sc4c(c13)CCC(C)C4)CC2 (stereo not given) | 3.91 | IC50 (PBLUC_HILL_SLOPE 15.9, PBLUC_R_SQUARED 0.656, read-out: LUCIFERASE INFECTION ASSAY - IC50): 3.41 µM |
| CC(C)(C)c1ccc(C(=N)NOC(=O)c2sccc2Cl)cc1 | 2.4 | IC50 (FFLUC_HILL_SLOPE 2.56, FFLUC_R_SQUARED 0.405, HEPG2TOX_HILL_SLOPE 0.0994, HEPG2TOX_R_SQUARED 0.101, PBLUC_HILL_SLOPE 0.809, PBLUC_R_SQUARED 0.834, read-out: LUCIFERASE INFECTION ASSAY - IC50): 0.159 µM |
| CCCCOc1ccc(Nc2nc(C(N)CCc3ccccc3)cs2)nn1 (stereo not given) | > 8.6 | IC50 [1]: > 8.6 µM |
| Cc1cc(C)n(-c2nc(-c3ccccc3)cc(N(C)CCO)n2)n1 | 3.45 | IC50 (HEPG2TOX_HILL_SLOPE 0.522, HEPG2TOX_R_SQUARED 0.395, PBLUC_HILL_SLOPE 14.2, PBLUC_R_SQUARED 0.716, read-out: LUCIFERASE INFECTION ASSAY - IC50): 2.96 µM |
| O=[N+]([O-])c1ccccc1Sc1sc2ncnc(N/N=C/c3ccc(Cl)cc3Cl)c2c1-c1ccccc1 | > 10 | IC50 (FFLUC_HILL_SLOPE 17, FFLUC_R_SQUARED 0.5, read-out: LUCIFERASE INFECTION ASSAY - IC50): > 10 µM |
| c1cncc(-c2cnc3ccc(-c4ccoc4)nn23)c1 | > 10 | IC50 (HEPG2TOX_HILL_SLOPE 0.706, HEPG2TOX_R_SQUARED 0.847, PBLUC_HILL_SLOPE 1.15, PBLUC_R_SQUARED 0.722, read-out: LUCIFERASE INFECTION ASSAY - IC50): 1.63 µM |
| CCOc1ccc2ccccc2c1/C=C/c1ccc2cccc(O)c2n1 | 3.84 | IC50 (HEPG2TOX_HILL_SLOPE 14.8, HEPG2TOX_R_SQUARED 0.407, PBLUC_HILL_SLOPE 11.5, PBLUC_R_SQUARED 0.372, read-out: LUCIFERASE INFECTION ASSAY - IC50): 3.17 µM |
| Cc1nc(-c2ccc(CCNC(=O)c3ccc(S(C)(=O)=O)c([N+](=O)[O-])c3)cc2)cs1 | 5.46 | IC50 (HEPG2TOX_HILL_SLOPE 14.7, HEPG2TOX_R_SQUARED 0.837, PBLUC_HILL_SLOPE 381, PBLUC_R_SQUARED 0.298, read-out: LUCIFERASE INFECTION ASSAY - IC50): 5.43 µM |
| Cc1cc(S(=O)(=O)Oc2ccccc2C(N)=O)ccc1-n1cnnn1 | > 10 | IC50 (PBLUC_HILL_SLOPE 12.6, PBLUC_R_SQUARED 0.0652, read-out: LUCIFERASE INFECTION ASSAY - IC50): 9.07 µM |
| CN(C)c1ccc(-c2cnc3cnc(-c4ccccc4N(C)C)cn23)cc1 | 0.0642 | IC50 (HEPG2TOX_HILL_SLOPE 0.323, HEPG2TOX_R_SQUARED 0.566, PBLUC_HILL_SLOPE 1.8, PBLUC_R_SQUARED 0.657, read-out: LUCIFERASE INFECTION ASSAY - IC50): 0.0189 µM |
| CC(C)(C)c1ccccc1NC(=O)Nc1nc(C(N)CCc2ccccc2)cs1 (stereo not given) | 8 | IC50 (PBLUC_HILL_SLOPE 12.3, PBLUC_R_SQUARED 0.125, read-out: LUCIFERASE INFECTION ASSAY - IC50): 6.69 µM |
| COc1cc(-c2cnc3cnc(-c4ccccc4C)cn23)ccc1O | 5.32 | IC50 (FFLUC_HILL_SLOPE 9.6, FFLUC_R_SQUARED 0.0922, HEPG2TOX_HILL_SLOPE 3.65, HEPG2TOX_R_SQUARED 0.847, PBLUC_HILL_SLOPE 7.45, PBLUC_R_SQUARED 0.397, read-out: LUCIFERASE INFECTION ASSAY - IC50): 3.96 µM |
| COc1ccc(-c2cnc3cnc(-c4cccs4)cn23)cc1 | 8.31 | IC50 (PBLUC_HILL_SLOPE 3.03, PBLUC_R_SQUARED 0.723, read-out: LUCIFERASE INFECTION ASSAY - IC50): 4.02 µM |
| NC(=NNC(=S)Nc1ccccc1C(F)(F)F)c1ccccn1 | 2.78 | IC50 (FFLUC_HILL_SLOPE 21.9, FFLUC_R_SQUARED 0.597, HEPG2TOX_HILL_SLOPE 0.969, HEPG2TOX_R_SQUARED 0.909, PBLUC_HILL_SLOPE 1.81, PBLUC_R_SQUARED 0.836, read-out: LUCIFERASE INFECTION ASSAY - IC50): 0.826 µM |
| CC(C)(C)OC(=O)Nc1ccc(C(=O)NCC2(c3ccccc3)CC2)cc1 | > 10 | IC50 [1]: > 10 µM |

| Compound | IC90 [µM] | also measured |
| --- | --- | --- |
| CC(C)OC(=O)c1nnsc1S(=O)(=O)c1ccc(Cl)cc1 | > 9.52 | IC50 [1]: > 9.52 µM |
| CCc1ccc(OCC(O)Cn2c(=O)c3ccccc3n3nc(C)cc23)cc1 (stereo not given) | 9.43 | IC50 (HEPG2TOX_HILL_SLOPE 9.12, HEPG2TOX_R_SQUARED 0.677, PBLUC_HILL_SLOPE 3.87, PBLUC_R_SQUARED 0.197, read-out: LUCIFERASE INFECTION ASSAY - IC50): 5.34 µM |
| Cc1nnc(Sc2ncnc3scc(-c4ccccc4)c23)s1 | 6.88 | IC50 (HEPG2TOX_HILL_SLOPE 11.3, HEPG2TOX_R_SQUARED 0.507, PBLUC_HILL_SLOPE 5.22, PBLUC_R_SQUARED 0.122, read-out: LUCIFERASE INFECTION ASSAY - IC50): 4.52 µM |
| CN1CCN(C(=O)c2cccc(-c3cnc4cnc(-c5ccc(Cl)cc5)cn34)c2)CC1 | > 7.64 | IC50 [1]: > 7.64 µM |
| COc1ccc(OC)c(CCNc2nc3cnc(-c4cccc(NS(C)(=O)=O)c4)cc3n2C)c1 | > 10 | IC50 [1]: > 10 µM |
| Cc1ccc(C(C=CC(C#N)C#N)=Nc2ccc(Cl)cc2)cc1 | > 10.3 | IC50 [1]: > 10.3 µM |
| O=C(Nc1ncccc1O)c1ccc(Cn2cccn2)cc1 | 3.1 | IC50 (PBLUC_HILL_SLOPE 2.35, PBLUC_R_SQUARED 0.554, read-out: LUCIFERASE INFECTION ASSAY - IC50): 1.22 µM |
| Cc1oc(=S)n(CN2CCN(S(=O)(=O)c3ccc4ccccc4c3)CC2)c1C | > 10 | IC50 [1]: > 10 µM |
| CCOC(=O)c1c[nH]nc1S(=O)(=O)Nc1ccc[nH]c1=O | > 10 | IC50 [1]: > 10 µM |
| COCCN1COc2c(cc(Cl)c3cccnc23)C1 | 5.37 | IC50 (HEPG2TOX_HILL_SLOPE 3.55, HEPG2TOX_R_SQUARED 0.927, PBLUC_HILL_SLOPE 12, PBLUC_R_SQUARED 0.223, read-out: LUCIFERASE INFECTION ASSAY - IC50): 4.47 µM |
| c1ccc(CCNc2nccc3nc(-c4ccccc4)[nH]c23)cc1 | 4.09 | IC50 (HEPG2TOX_HILL_SLOPE 7.38, HEPG2TOX_R_SQUARED 0.753, PBLUC_HILL_SLOPE 1.8, PBLUC_R_SQUARED 0.435, read-out: LUCIFERASE INFECTION ASSAY - IC50): 1.21 µM |
| Cc1cc(Br)c(NC(=S)NC(=O)C(C)(C)C)c(Br)c1 | > 8.09 | IC50 (HEPG2TOX_HILL_SLOPE 2.38, HEPG2TOX_R_SQUARED 0.209, read-out: LUCIFERASE INFECTION ASSAY - IC50): > 8.09 µM |
| COc1ccc(-c2cnc3ccc(NCc4ccc5c(c4)OCO5)nn23)cc1 | 1.36 | IC50 [1]: 0.746 µM |
| COC(=O)c1c(C)[nH]c(C(=O)C(C)OC(=O)c2ccccc2NS(=O)(=O)c2ccc(Br)s2)c1C (stereo not given) | > 10 | IC50 (HEPG2TOX_HILL_SLOPE 1.22, HEPG2TOX_R_SQUARED 0.375, PBLUC_HILL_SLOPE 2.55, PBLUC_R_SQUARED 0.409, read-out: LUCIFERASE INFECTION ASSAY - IC50): 7.98 µM |
| C=C(C#N)CN1CCN(CC(=C)C#N)CC1 | 14.9 | IC50 (HEPG2TOX_HILL_SLOPE 11.9, HEPG2TOX_R_SQUARED 0.949, PBLUC_HILL_SLOPE 23.6, PBLUC_R_SQUARED 0.193, read-out: LUCIFERASE INFECTION ASSAY - IC50): 13.6 µM |
| COc1cccc(NC(=O)Nc2ccc(N3CCN(c4ncccc4C(F)(F)F)CC3)nc2)c1 | > 6.98 | IC50 (PBLUC_HILL_SLOPE 3.4, PBLUC_R_SQUARED 0.647, read-out: LUCIFERASE INFECTION ASSAY - IC50): 5.69 µM |
| S=C(N/N=C/c1ccccn1)Nc1ccc(Cl)c(Cl)c1 | > 10.1 | IC50 (HEPG2TOX_HILL_SLOPE 7.56, HEPG2TOX_R_SQUARED 0.274, PBLUC_HILL_SLOPE 6.84, PBLUC_R_SQUARED 0.4, read-out: LUCIFERASE INFECTION ASSAY - IC50): 7.65 µM |
| COc1cccc(N2C(=O)CC(n3nc(Nc4cccc(C)c4)sc3=S)C2=O)c1 (stereo not given) | > 10 | IC50 [1]: > 10 µM |
| CC(C)(CNC(=O)Nc1ccccc1)SCc1ccc(Cl)cc1 | > 9.46 | IC50 (PBLUC_HILL_SLOPE 4.79, PBLUC_R_SQUARED 0.408, read-out: LUCIFERASE INFECTION ASSAY - IC50): 6.73 µM |
| Cn1c(=O)[nH]c(=O)c2c1nc(Nc1ccc(Cl)cc1Cl)n2CC(=O)O | > 10 | IC50 [1]: > 10 µM |
